The record followed here is patent publication US20230295201A1 (Gilead Sciences, Inc., priority 2020, published 2023).

Like-named read-outs stand apart in the source and are kept apart here.

Format in all cases: cell-based
In one test the test system is HRV1a. The test is described as follows: HRV1A HELA EC50 (cytopathic effect in H1-HeLa cells). The following applies: 96 h, read-out: HRV1A HELA EC50. The protocol: (§1) H1-HeLa cells, cultured in complete RPMI 1640 medium containing 10% heat-inactivated FBS and 1% Penicillin/Streptomycin, were seeded in 96 well plates at 5000 cells/well one day prior to compound dosing and infection. The antiviral activity of each compound was measured in triplicate. Compounds were added directly to the cell cultures in serial 3-fold dilutions using the HP300 digital dispenser (Hewlett Packard, Palo Alto, CA) immediately prior to infection. The plates were transferred to BSL-2 containment and 100 μL of 1/4000 dilution of HRV1a virus stock was added to each well containing cells and serially diluted compounds. Each plate included 6 wells of infected untreated cells and 6 wells of cells containing 5 μM Rupintrivir that served as 0% and 100% virus inhibition control, respectively. Following the infection, test plates were incubated for 96 h in a tissue culture incubator set to 37° C./5% CO2. Following incubation, the H1-HeLa cells were removed from incubation and allowed to equilibrate to 25° C. Cell viability was determined by removing 100 μL of culture medium and adding 100 μL of Cell-Titer Glo viability reagent. The mixtures were incubated on a shaker for 10 minutes at 25° C., and the luminescence signal was quantified on an Envision luminescence plate reader.
In general terms: Damage to the host cells serves as the signal in cytopathic effect assays.

Another test deals with HRV10. The test is described as follows: HRV10 HELA EC50.
A further test deals with HRV14. In words: HRV14 HELA EC50 (cytopathic effect in H1-HeLa cells). The note with it: 96 h, read-out: HRV14 HELA EC50. The protocol: as §1, with “HRV14” for “HRV1a”
The subject of a further test is HRV99. In words: HRV99 EC50.
The next test concerns HRVc15 replicon. The test is described as follows: HRVc15 EC50 (replicon luciferase in H1-HeLa cells). The following applies: 48 hrs. The protocol: (§2) First, HRV replicon RNA is prepared. 5 ug of DNA Template (HRVc15 or HRVc25) is linearized with 2 μL of MluI enzyme in NEB buffer-3 in a final volume of 25 μL for 3 hours at 37° C. Following incubation, linearized DNA is purified on a PCR purification column and the following in vitro transcription is performed using the following conditions: 10 μL of RiboMAX Express T7 2× buffer, 1-8 μL of linear DNA template (1 μg), 0-7 μL nuclease free water, 2 μL enzyme mix T7 express. The final volume of 20 μL is mixed and incubated at 37° C. for 30 min. Following incubation, 1 μL of RQ1 RNase free DNase is added and the mixture is incubated at 37° C. for 15 min. The resulting RNA is then purified with the MegaClear Kit (Gibco Life Technologies cat #11835-030) and is eluted two times with 50 μL of elution buffer at 95° C. […] Replicon activity is then measured by a Renilla-Glo Luciferase Assay system. Prior to signal quantification, plates are removed from incubators and are allowed to equilibrate to 25° C. after 50 uL is removed from each well. […] Plates are then incubated for 20 min at 25° C. under gentle agitation and luciferase signal are determined with a 0.1 second detection setting using an EnVision luciferase quantification reader.
Background: In antiviral work, replicon cells carry a viral genome segment that copies itself.

The subject of a further test is HRVc25 replicon. In words: HRVc25 EC50 (replicon luciferase in H1-HeLa cells). The note with it: 48 hrs. The protocol:
as §2

Consider `C[C@H](NP(=O)(OC[C@@]1(C#N)O[C@@H](c2ccc3c(N)ncnn23)[C@H](O)[C@@H]1O)Oc1ccccc1)C(=O)OCC1CC1` (mixture of isomers) [Example 8, (2S)-cyclopropylmethyl 2-(((((2R,3S,4R,5S)-5-(4-aminopyrrolo[2,1-f][1,2,4]triazin-7-yl)-2-cyano-3,4-dihydroxytetrahydrofuran-2-yl)methoxy)(phenoxy)phosphoryl)amino)propanoate], for which the concentration for a half-maximal effect (EC50) with HRV1a was found to be 211 nM; in the test on HRV10, 179 nM; with HRV14, 615 nM; in the test on HRV99 it was 1340 nM.

As for `CC(C)OC(=O)[C@H](C)NP(=O)(OC[C@@]1(C#N)O[C@@H](c2ccc3c(N)ncnn23)[C@H](O)[C@@H]1O)Oc1ccccc1` (mixture of isomers) [Example 77, Isopropyl ((((2R,3S,4R,5S)-5-(4-aminopyrrolo[2,1-f][1,2,4]triazin-7-yl)-2-cyano-3,4-dihydroxytetrahydrofuran-2-yl)methoxy)(phenoxy)phosphoryl)-L-alaninate], the 50% effective concentration (EC50) with HRV1a came to 736 nM; in the test with HRV10, 636 nM; with HRV14 it was 1810 nM; with HRV99, 4940 nM.

Take `CCC(CC)COC(=O)[C@H](CC)NP(=O)(OC[C@@]1(C#N)O[C@@H](c2ccc3c(N)ncnn23)[C@H](O)[C@@H]1O)Oc1ccccc1` (mixture of isomers) [Example 88, (2S)-2-ethylbutyl 2-(((((2R,3S,4R,5S)-5-(4-aminopyrrolo[2,1-f][1,2,4]triazin-7-yl)-2-cyano-3,4-dihydroxytetrahydrofuran-2-yl)methoxy)(phenoxy)phosphoryl)amino)butanoate]: the EC50 with HRV1a came out at 581 nM; in the test with HRV10, 608 nM; in the test on HRV14, 1690 nM; in the test with HRV99, 4540 nM.

Regarding `CC[C@H](NP(=O)(OC[C@@]1(C#N)O[C@@H](c2ccc3c(N)ncnn23)[C@H](O)[C@@H]1O)Oc1ccccc1)C(=O)OC1CCCCC1` (mixture of isomers) [Example 103, (2S)-cyclohexyl 2-(((((2R,3S,4R,5S)-5-(4-aminopyrrolo[2,1-f][1,2,4]triazin-7-yl)-2-cyano-3,4-dihydroxytetrahydrofuran-2-yl)methoxy)(phenoxy)phosphoryl)amino)butanoate], the concentration giving a half-maximal response (EC50) in the test on HRV1a is 1020 nM; in the test on HRV10, 916 nM; in the test on HRV14 it was 2550 nM; in the test with HRV99, 4740 nM.

As to `C[C@H](N[P@](=O)(OC[C@@]1(C#N)O[C@@H](c2ccc3c(N)ncnn23)[C@H](O)[C@@H]1O)Oc1ccccc1)C(=O)OC1CCCCC1` (single isomer, unassigned) [Example 6], the values for the EC50 with HRVc15 replicon and in the test on HRVc25 replicon were 9 nM and 7 nM, respectively.

Regarding `C[C@H](NP(=O)(OC[C@@]1(C#N)O[C@@H](c2ccc3c(N)ncnn23)[C@H](O)[C@@H]1O)Oc1ccccc1)C(=O)OC1CCCCC1` (stereo partly drawn) [Example 4, (2S)-cyclohexyl 2-(((((2R,3S,4R,5S)-5-(4-aminopyrrolo[2,1-f][1,2,4]triazin-7-yl)-2-cyano-3,4-dihydroxytetrahydrofuran-2-yl)methoxy)(phenoxy)phosphoryl)amino)propanoate], the concentration for a half-maximal effect (EC50) with HRV1a was 190 nM; with HRV10 it was 144 nM; in the test on HRV14, 445 nM; with HRV99, 1090 nM.

As to `CCC(CC)COC(=O)[C@@H](C)NP(=O)(OC[C@@]1(C#N)O[C@@H](c2ccc3c(N)ncnn23)[C@H](O)[C@@H]1O)Oc1ccccc1` (stereo partly drawn) [Example 82, (2R)-2-ethylbutyl 2-(((((2R,3S,4R,5S)-5-(4-aminopyrrolo[2,1-f][1,2,4]triazin-7-yl)-2-cyano-3,4-dihydroxytetrahydrofuran-2-yl)methoxy)(phenoxy)phosphoryl)amino)propanoate], the EC50 in the test with HRV1a is 2780 nM; with HRV10 it was 2680 nM; in the test on HRV14, 9190 nM; in the test on HRV99 it was 19300 nM.

As for `C[C@H](NP(=O)(OC[C@@]1(C#N)O[C@@H](c2ccc3c(N)ncnn23)[C@H](O)[C@@H]1O)Oc1ccccc1)C(=O)OCC(C)(C)C` (stereo partly drawn) [Example 92, (2S)-neopentyl 2-(((((2R,3S,4R,5S)-5-(4-aminopyrrolo[2,1-f][1,2,4]triazin-7-yl)-2-cyano-3,4-dihydroxytetrahydrofuran-2-yl)methoxy)(phenoxy)phosphoryl)amino)propanoate], the EC50 with HRV1a was found to be 97 nM; in the test on HRV10, 81 nM; with HRV14, 242 nM; in the test with HRV99, 639 nM.

In the case of `CCCCCCCCCCCCCCCCCCOC[C@H](COP(=O)(O)OC[C@@]1(C#N)O[C@@H](c2ccc3c(N)ncnn23)[C@H](O)[C@@H]1O)OCc1ccccc1` [Example 96, ((2R,3S,4R,5S)-5-(4-aminopyrrolo[2,1-f][1,2,4]triazin-7-yl)-2-cyano-3,4-dihydroxytetrahydrofuran-2-yl)methyl ((R)-2-(benzyloxy)-3-(octadecyloxy)propyl) hydrogen phosphate], the 50% effective concentration (EC50) amounted to 1580 nM in the test on HRV1a (H1-HeLa cells), 2320 nM with HRV10, 12000 nM in the test with HRV14 (H1-HeLa cells) and 63900 nM in the test on HRV99.

For `CCC(CC)OC(=O)[C@H](C)NP(=O)(OC[C@@]1(C#N)O[C@@H](c2ccc3c(N)ncnn23)[C@H](O)[C@@H]1O)Oc1ccccc1` (stereo partly drawn) [Example 101, (2S)-pentan-3-yl 2-(((((2R,3S,4R,5S)-5-(4-aminopyrrolo[2,1-f][1,2,4]triazin-7-yl)-2-cyano-3,4-dihydroxytetrahydrofuran-2-yl)methoxy)(phenoxy)phosphoryl)amino)propanoate], the 50% effective concentration (EC50) was found to be 1630 nM in the test on HRV1a, 1310 nM with HRV10, 3430 nM in the test on HRV14 and 7340 nM in the test with HRV99.

The term EC50 denotes the midpoint of the concentration-response curve.
